Data taken from article PMC11436104 (Toxins, 2024).
Read-outs that look alike come from different tables or passages of the source. *1 amine or outer side, *2 acyl side, *3 side chain or, on linkers, in order; H or OH if unused. Where a SMILES comes first, the peptide text is derived from it. Bridges are numbered along the chain shown (N, C = ends). [ ]: non-standard residue; d: D form. Adda = CO[C@@H](Cc1ccccc1)[C@@H](C)/C=C(C)/C=C/[C@H](N[*:1])[C@H](C)C(=O)[*:2]; dAsp(3S-Me) = C[C@H](C(=O)[*:3])[C@@H](N[*:1])C(=O)[*:2]; d(γGlu) = O=C(O)[C@@H](CCC(=O)[*:2])N[*:1]; hTyr = N[C@@H](CCc1ccc(O)cc1)C(=O)O; NMeA = CN[C@@H](C)C(=O)O; NMeDha = C=C(NC)C(=O)O; CO = O=C([*:1])[*:2]

Assays:
[1] = target: T1, Ser/Thr protein phosphatase type-1 (PP1; α isoform catalytic subunit) (Oryctolagus cuniculus, UniProt P62139); assay: Colorimetric protein phosphatase inhibition assay, p-nitrophenyl phosphate substrate; assay type: biochemical, rabbit
T1 construct: purchased Sigma 539493; host or cells: Escherichia coli
Experimental: The inhibition of Ser/Thr protein phosphatases by the CCPs was measured using the colorimetric inhibition assay described by An and Carmichael and Gkelis et al., with some modifications. […] Enzymes, PP1 and PP2A, were diluted in reaction buffer #1 (50 mM Tris-HCl, 1.0 g/L bovine serum albumin, 1.0 mM MnCl2, 2.0 mM dithiothreitol, pH 7.4), and p-nitrophenyl phosphate was prepared in substrate buffer (0.1 M glycine, pH 10.4, 1 mM MgCl2, 1 mM ZnCl2). The assay was performed by the addition of each CCP (as a potential inhibitor; final concentrations, 0.1, 1, 10, and 100 µM) to the enzyme solution (i.e., PP1 and PP2A; final concentrations, 1 U/well and 0.01 U/well, respectively, where 1 U hydrolyzes 1 nmole of substrate per minute at pH 7.4 at 30 °C). After a few seconds of gentle shaking, the microplate was kept at room temperature for 5 min, followed by the addition of reaction buffer #2 (50 mM Tris-HCl, 0.5 g/L bovine serum albumin, 0.2 mM MnCl2, 20 mM MgCl2, and pH 8.1) for PP1, or reaction buffer #1 for PP2A. The reactions were started by the addition of p-nitrophenyl phosphate (final concentrations, 15 mM for PP1 and 10 mM for PP2A) and were carried out for 120 min at 37 °C. The hydrolysis of p-nitrophenyl phosphate to […] was recorded at 405 nm using a microplate reader (Tecan, Austria). The inhibition percentages (X) were calculated from the absorbances of the samples after incubation for 30 min, as according to Equation (1):X (%) = (APP − AS)/APP × 100,(1) where APP is the absorbance of the control sample (i.e., enzyme only), and AS is the absorbance of the test sample (i.e., enzyme with potential inhibitor). […] All measurements were repeated a minimum of three independent times, with five technical replicates per experiment. IC50 values are expressed as means ± SD.

[2] = system: NHAs (normal human astrocytes); assay: MTT metabolic activity / cell viability; assay type: cell-based
Experimental: Normal human astrocytes (NHAs; Lonza, Walkersville, MD, USA) were grown and maintained in monolayer cultures in Dulbecco’s modified Eagle’s medium (DMEM; Sigma) supplemented with 10% fetal bovine serum (Euroclone, Pero, MI, Italy), 1% penicillin/streptomycin (Euroclone), 2 mM L-glutamine (Euroclone), and 20 mM Hepes (Invitrogen, Carlsbad, CA, USA). The U87-MG human glioblastoma cells (U87-MG cells; American Type Culture Collection, Manassas, VA, USA) were grown and maintained in monolayer cultures in DMEM supplemented with 10% fetal bovine serum, 1% penicillin/streptomycin, 4 mM L-glutamine, and 1% non-essential amino acids (Sigma).
Cell viability was determined using the 3-(4,5-dimethylthiazolyl-2)-2,5-diphenyltetrazolium bromide (MTT) assay, as according to Mosmann. This assay measures the conversion of MTT to its insoluble formazan by the dehydrogenase enzymes of the intact mitochondria of living cells. […]; Nunclon; Nunc, Naperville, IL, USA) and incubated for 16 h at 37 °C for attachment. The cell-growth medium was then replaced by fresh medium containing 0, 0.1, 1, and 10 µM of each CCP and incubated for an additional 24 h. These experiments were performed without using dimethylsulphoxide to best retain the original permeability of the cell membranes. Each experiment included the negative control of cell-growth medium with no additions. Following incubation (CO2 incubator), 20 μL 5 mg/mL MTT was added to each well. The plates were incubated for another 3 h. […] The amount of formazan, which is proportional to the metabolic activity of cells, was quantified spectrophotometrically at 570 nm (reference filter wavelength, 690 nm) using a microplate reader (Synergy MX; BioTek, Winooski, VT, USA). The metabolic activity of the cells was determined by comparing the optical densities of the CCP-treated cells with those of the negative control. Five replicates per concentration and three independent experiments were performed. Student’s t-tests were used to analyze the differences between the treated and control cells using Prism 5 software (GraphPad, Inc., La Jolla, CA, USA), where p < 0.05 was considered to be statistically significant.

[3] = means ± SD, p-nitrophenyl phosphate 15 mM

T1 sequence (P62139 whole entry, canonical isoform): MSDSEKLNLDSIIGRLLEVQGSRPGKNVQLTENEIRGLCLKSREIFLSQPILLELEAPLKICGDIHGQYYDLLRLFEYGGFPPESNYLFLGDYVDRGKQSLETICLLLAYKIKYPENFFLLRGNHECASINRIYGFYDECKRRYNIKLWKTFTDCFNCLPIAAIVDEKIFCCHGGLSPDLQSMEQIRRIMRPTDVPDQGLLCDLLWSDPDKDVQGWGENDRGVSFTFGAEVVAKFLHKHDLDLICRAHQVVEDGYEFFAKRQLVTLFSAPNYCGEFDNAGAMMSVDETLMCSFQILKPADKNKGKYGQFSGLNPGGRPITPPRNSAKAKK

| SMILES | IC50 [1, 3] [µM] | metabolic activity vs control ([2]; NHAs, up to 10 µM, 24 h) | IC50 [1] [µM] | metabolic activity vs control [2] | cytotoxicity ([2]; 10 µM, read-out: cell viability lower than the control) [%] |
| --- | --- | --- | --- | --- | --- |
| CC[C@H](C)[C@@H]1NC(=O)[C@H](Cc2ccc(OC)cc2)N(C)C(=O)[C@H]([C@@H](C)O)N2C(=O)[C@H](CC[C@H]2O)NC(=O)[C@H](CC(C)C)NC(=O)[C@@H](NC(=O)[C@H](CCC(N)=O)NC(=O)[C@H](CCc2ccc(O)cc2)NC(=O)[C@@H](O)CO)[C@@H](C)OC1=O | 132 ± 87.5 | no significant changes from the control | – | – | – |
| CC[C@H](C)[C@@H]1NC(=O)[C@H](NC(=O)N[C@@H](CCCNC(=N)N)C(=O)O)CCCCNC(=O)[C@H](Cc2ccccc2)NC(=O)[C@H](C)N(C)C(=O)[C@H](CCc2ccc(O)cc2)NC1=O [anabaenopeptin F] ({Arg-CO}-[dK]I[hTyr][NMeA]F; lactam 1-C) | 28.2 ± 3.4 | no significant changes from the control | – | – | – |
| C=C1C(=O)N[C@H](C)C(=O)N[C@@H](CC(C)C)C(=O)N[C@@H](C(=O)O)[C@H](C)C(=O)N[C@@H](CCCNC(=N)N)C(=O)N[C@@H](/C=C/C(C)=C/[C@H](C)[C@H](Cc2ccccc2)OC)[C@H](C)C(=O)N[C@@H](C(=O)O)CCC(=O)N1C [MC-LR, Microcystin-LR, reference compound] (R[Adda][d(γGlu)][NMeDha][dA]L[dAsp(3S-Me)]-OH; lactam N-7) | – | – | 0.005 ± 0.0016 | significantly decreased | ~20 |
| CC(C)[C@@H]1NC(=O)[C@H](NC(=O)N[C@@H](CCCNC(=N)N)C(=O)O)CCCCNC(=O)[C@H](Cc2ccccc2)NC(=O)[C@H](C)N(C)C(=O)[C@H](CCc2ccc(O)cc2)NC1=O [anabaenopeptin B] ({Arg-CO}-[dK]V[hTyr][NMeA]F; lactam 1-C) | 9.5 ± 0.9 | no significant changes from the control | – | – | – |
